# Data from patent publication US20200190592A1, “PME-1 AS A BIOMARKER TO PREDICT AND DIAGNOSE AN INCREASED RISK OF ENDOMETRIAL CANCER AND GENE SILENCING OF PME-1 TO INHIBIT EPITHELIAL TO MESENCHYMAL TRANSITION” (Medical Diagnostic Laboratories, L.L.C., priority 2018, published 2020).
# Tests used:
# [1] = molecular target: T1, recombinant PME-1_des3 (Homo sapiens, UniProt Q9Y570); experiment: Thermal melt (thermal shift) assay; format: binding
# T1 sequence (Q9Y570 1-383 limits assumed): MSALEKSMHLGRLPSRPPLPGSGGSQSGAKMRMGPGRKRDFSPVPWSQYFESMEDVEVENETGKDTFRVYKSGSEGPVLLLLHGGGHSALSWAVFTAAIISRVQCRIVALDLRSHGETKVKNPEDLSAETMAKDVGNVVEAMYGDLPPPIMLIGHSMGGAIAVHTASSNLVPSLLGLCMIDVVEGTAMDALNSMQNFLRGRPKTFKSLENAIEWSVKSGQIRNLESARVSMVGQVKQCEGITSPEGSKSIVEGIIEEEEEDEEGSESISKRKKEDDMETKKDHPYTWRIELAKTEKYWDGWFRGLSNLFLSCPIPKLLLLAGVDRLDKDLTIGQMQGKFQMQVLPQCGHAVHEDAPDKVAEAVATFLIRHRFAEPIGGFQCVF
# Method: There are several commercially available covalent PME-1 inhibitors that we have analyzed as potential endometrial cancer therapeutics. To confirm that the inhibitors directly bind PME-1, we completed a thermal melt assay. One micromole (1 μmole) of recombinant PME-1_des3, of which the last 3 amino acids are deleted, were pre-incubated with SYBR orange in the presence of 50 μM ABL-127 (a potent covalent PME-1 inhibitor, squares) or 0.05% DMSO (vehicle, circles) for 10 minutes (FIG. 25) at 37° C. We then performed a thermal gradient, increasing the temperature by 2° C. each minute from 37° C. to 95° C. and fluorescent signal was detected at 492-601 nm on a thermal cycler. The increase in Tm from ˜55° C. (PME-1+DMSO, circles) to ˜65° C. (PME-1+ABL-127, squares) indicated thermal stabilization of the PME-1 protein via direct binding of the ABL-127 inhibitor (FIG. 25).
# The assay was completed by first conducting a 10 min pre-incubation of one μmole of recombinant PME-1des3 with 50 μM ABL127 (Sigma) or vehicle (0.05% DMSO) in the presence of SYBR Orange (1:1,000, v/v, Sigma) at 37° C. in 1×NEB buffer 2 (50 mM NaCl, 10 mM Tris-HCl, 10 mM MgCl2, 1 mM DTT, pH 7.9 at 25° C.), a thermal gradient was performed increasing temperature by 2° C. per minute increments from 37° to 95° C. and fluorescence (492 nm-610 nm) was acquired on a thermal cycler Mx3005P (Stratagene).
# [2] = test system: Ishikawa endometrial cancer cells; experiment: Foci formation assay in Ishikawa cells; format: cell-based, human; details: DMSO set to 100%
# Method: This study was completed in Ishikawa endometrial cancer cells.
# 1,000 cells were plated in a six well tissue culture dish in selection media (to include 5 μg/ml puromycin) (InvivoGen). Cells were allowed to adhere and grow in a 5% CO2, 37° C. incubator for 10 to 14 days. […] Cells were stained with 1% crystal violet (Sigma Aldrich) for five minutes and rinsed with PBS. Colonies were counted and data is presented as the percentage of change compared to the control. All Experiments were repeated at least three times.
# [3] = test system: Ishikawa cells; experiment: Trans-well migration assay; format: cell-based, human; details: 24 hr, through collagen towards 30% FBS, vs DMSO
# Method: We next asked if PME-1 inhibition led to decreased cell migration by completing a trans-well migration assay. Cells were synchronized for 24 hours in media containing 0% FBS. For this experiment, DMSO was again used as the vehicle control and Ishikawa cells were treated with DMSO (control) or 50 nM ABL-127 or 20 μM AMZ-30 for 24 hr and were allowed to migrate through a collagen-coated well towards the bottom chamber, containing media with 30% FBS.
# The assay was completed with ECC-1 endometrial carcinoma cell lines following kit instructions Cultrex 96 Well Collagen IV Cell Invasion Assay (cat #3458-096-K). Briefly, cells were serum starved for 24 hours prior to experimentation, then counted and put into the top chamber of a collagen type IV coated Transwell membrane at a concentration of 1×10^6 cells/well in 0% FBS. The bottom chamber contained 30% FBS. Cells were allowed to invade at 37° C. humid chamber incubator for 24 hours. Cells that invaded were analyzed using the kit provided Calcein-AM and fluorescence was read using FluoStar Galaxy.
# [4] = molecular target: protein phosphatase 2A (PP2A), endogenous in RL95-2 cells; experiment: cell-based or functional assay
# [5] = test system: RL95-2 cells; experiment: Foci forming assay in RL95-2 cells; format: cell-based, human
# Method: A foci forming assay was used in this study to monitor cell growth. Equal amounts of cells were plated and they were allowed to grow for a determined period of time (see Materials and Methods section for details). The foci that were formed were then stained with the crystal violet dye. Cells were washed […] with PBS prior to visualization. Numbers of foci were counted and results were averaged among different experiments.
# To determine if the loss of active PME-1 accounted for the observed decrease in foci formation, we first treated RL95-2 cells with siRNA against the 3′-UTR of PPME1 to decrease endogenous levels of PME-1. […] The S156A PME-1 mutant is not capable of demethylating its target, PP2A.
# 1,000 cells were plated in a six well tissue culture dish in selection media (to include 5 μg/ml puromycin) (InvivoGen). Cells were allowed to adhere and grow in a 5% CO2, 37° C. incubator for 10 to 14 days. Media was replaced every fourth day. Cells were stained with 1% crystal violet (Sigma Aldrich) for five minutes and rinsed with PBS. Colonies were counted and data is presented as the percentage of change compared to the control. All Experiments were repeated at least three times.
# [6] = test system: RL95-2 cells; experiment: Colony forming / invasive growth assay in Matrigel; format: cell-based, human; details: RL95-2 in Matrigel, addition of TGF-β (10 ng/ml)
# Method: To determine if PME-1 contributes to the more invasive and metastatic phenotypes, we performed a colony forming assay in matrigel.
# The 3D On Top Matrigel Assay was completed in 24 well dishes as described previously {Lee, 2007 #1577}. Briefly, the bottoms of 24 well dishes were coated with 50 μl BD Matrigel Basement Matrix Phenol Red Free (BD Biosciences cat. #356237) and allowed to solidify at 37° C. 10^5 cells were suspended in 250 μl chilled medium containing either 10 ng/ml of TGF-b or vehicle and allowed to settle at 37° C. for 30 minutes. Chilled medium containing 10% of Matrigel was added by pipetting gently down the sidewall of the well and incubated at 37° C. for ten days changing top medium every second day. Colony counts were performed on the tenth day, averages were taken from three fields of view using a 10× objective. Experiment was repeated three times.
# [7] = test system: PPME1; experiment: qRT-PCR of PPME1 (PME-1) expression in RL95-2 cells; format: cell-based, human; details: TGF-β 24 hours, control cells and +PME-1 cells, normalized to GAPDH
# Method: In this study, we transfected RL95-2 cells to express empty vector (Control), over-expressing PME-1 (+PME-1) or expressing shRNA against PME-1 (−PME-1) followed by serum starvation for 24 hours. Afterwards, either vehicle or TGF-β treatment was performed at the end of the 24 hours. TGF-β was used to induce cells to initiate the EMT program. Gene expression analysis was conducted using quantitative real-time PCR.
# Using RL95-2 endometrial cancer cells, we overexpressed PME-1 (FIG. 21A) or depleted PME-1 with shRNA (FIG. 21B) and confirmed that PME-1 was appropriately expressed.
# Total RNA was extracted with Qiagen RNAEasy kit from RL95-2 cells. cDNA was synthesized using 500 ng-1 μg of RNA and SuperScript VILO c-DNA mix (Life Technologies). Taqman probes and PCR-mix were purchased from Life Technologies. All samples were run in triplicates. Results are representative of three independent experiments in which genes of interest were normalized to the house-keeping gene, 18S or GAPDH, where fold-change was calculated using the ddCt method.
# [8] = test system: PME-1; experiment: Western blot of PME-1 protein in RL95-2 cells; format: cell-based, human; details: GAPDH loading control
# From the text: We prepared RL95-2 cell lines expressing empty vector (control), over-expressing PME-1 (+PME-1), or expressing shRNA against PPME1, the gene that codes for PME-1 protein (−PME-1). Using these cells, we confirmed the appropriate level of PME-1 via real-time RT-PCR (data not shown) and Western blot analysis (FIG. 8). GAPDH was used as a loading control.
# We also prepared two different shRNAs targeted against PME-1.
# Lentivirus was produced in HEK293T cell lines with pLKO shRN vectors (Thermo Scientific, cat. no. RHS4533; Waltham, Mass.) and pCDH-CuO-GFP-Puro vectors (System Biosciences, Inc., cat. no. QM513B-1; Mountain View, Calif.) with pPACKH1 packaging plasmid (System Biosciences, Inc., cat, no. LV050A-1). shRNA sequences are in the Table 2. Lentivirus was collected and concentrated with Peg-IT concentrating solution (System Biosciences, Inc.). 5×10^6 ifu/ml lentivirus was added to cell cultures with growth media and 8 μg/ml PolyBrene (Sigma Aldrich). Media was changed to full growth media after 24 hrs and to selection media containing antibiotic after 48 hrs (5 μg/ml puromycin) (Invivogen) for 10 days.
# 15 μg of protein was used for western analysis. […]
compound,measurement,setting,value
"COC(=O)N1C(=O)C(c2ccccc2)(C2CCCC2)N1C(=O)OC (stereo in doubt) [ABL-127, (3R)-Dimethyl 3-cyclopentyl-4-oxo-3-phenyl-1,2-diazetidine-1,2,-dicarboxylate]",Tm,"[1]; 50 μM ABL-127, 10 min pre-incubation at 37° C., PME-1+DMSO ˜55° C.",~65 °C
same,melting temperature (Tm) and thermal stability of PME-1,[1]; binding of ABL-127 vs vehicle,increases
same,decrease in the amount of foci formed,[2]; 50 nM every 2-3 days for 10 days,~50%
same,percentage of cells capable of migrating,[3]; 50 nM,dramatic decrease
"N#C/C(=C\c1cccn1S(=O)(=O)c1cccc([N+](=O)[O-])c1)S(=O)(=O)c1ccc(F)cc1 [AMZ-30, (E)-2-(4-Fluorophenylsulfonyl)-3-(1-(3-nitrophenylsulfonyl)-1H-pyrrol-2-yl)-acrylonitrile]",decrease in the amount of foci formed,[2]; 25 μM every 2-3 days for 10 days,~50%
same,percentage of cells capable of migrating,[3]; 20 μM,dramatic decrease
"PME-1 (endogenous, RL95-2 cells) (from UniProt Q9Y570 2-386) (enzyme)",PP2A activity (phosphatase assay) after shRNA depletion of PME-1 in RL95-2 cells,[4],30 fold
PME-1 over-expressed in RL95-2 cells (+PME-1) (from UniProt Q9Y570 1-386) (enzyme),PP2A activity (phosphatase assay) after over-expression of PME-1 in RL95-2 cells,[4],90 % decrease
"PPME1 siRNA no. 2: siRNA, SEQ ID NO: 5: GTG GAT AGC ATC ACA AGA A, targets 3′-UTR (guide GTGGATAGCATCACAAGAA; listed as DNA, chemistry not given here; listed as Homo sapiens)",decrease in foci formed,"[5]; RL95-2, siRNA followed by empty vector, vs control siRNA with empty vector",40%
same,reduction in foci formation,"[5]; RL95-2, siRNA plus over-expressed S156A mutant PME-1",40%
TGF-β [reference compound],colony number,[6],overall decrease
same,increase in PME-1 expression,[7],~2 fold
"shPPME1 no. 1: shRNA targeting PPME1, SEQ ID NO: 1: GTACAGCTATGGATGCACTTA, bp 554-574 (guide GTACAGCTATGGATGCACTTA; listed as Homo sapiens)",PME-1 levels via Western blot analysis,[8],significantly decreased
